Data on three compounds can be found in patent US20240360194A1, “New Peptides as Potent and Selective GIP Receptor Agonists” (Sanofi, priority 2021, published 2024).

One may read the IC50 as the concentration at which inhibition is half-maximal. Lower therefore signals greater potency in that assay. One may read the solubility as the concentration that dissolves in the medium under given conditions. The EC50 is the concentration that produces a half-maximal response. Broadly, the Emax is the greatest response seen or fitted, relative to the assay's reference.

The target of data set [1] is T1, human GIP receptor (hGIPR) (Homo sapiens, UniProt P48546).
T1 sequence (P48546 22-466): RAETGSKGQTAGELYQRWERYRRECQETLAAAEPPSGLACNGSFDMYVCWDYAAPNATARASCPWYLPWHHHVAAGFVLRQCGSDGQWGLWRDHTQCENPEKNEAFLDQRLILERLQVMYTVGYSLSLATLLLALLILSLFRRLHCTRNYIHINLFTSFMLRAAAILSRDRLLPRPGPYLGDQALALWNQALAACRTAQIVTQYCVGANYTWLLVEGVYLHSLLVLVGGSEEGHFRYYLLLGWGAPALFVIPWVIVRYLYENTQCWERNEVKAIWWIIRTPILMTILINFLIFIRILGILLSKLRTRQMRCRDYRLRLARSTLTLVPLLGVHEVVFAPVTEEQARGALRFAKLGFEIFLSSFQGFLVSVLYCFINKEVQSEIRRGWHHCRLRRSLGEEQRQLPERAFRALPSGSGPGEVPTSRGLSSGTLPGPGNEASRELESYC
Description: Binding assay, displacement of [125I]GIP from HEK-293 membranes over-expressing GIPR (SPA). Particulars: [125I]GIP displacement. On the procedure:
(1) Preparation of Membranes from HEK-293 Cells Over-Expressing GIPR or GLP-1R
HEK-293 cells recombinantly over-expressing GIPR or GLP-1R were grown to 50% confluency, washed with warm 1×PBS (Gibco) and detached in HEPES/EDTA-buffer (100 mM HEPES pH 7.5, 5 mM EDTA). Cells were harvested by centrifugation at 4° C. and 3000×g and the pellets were stored at −80° C. until further processing.
After thawing on ice, pellets were resuspended in HEPES/EDTA-buffer and homogenized on ice for 1 min using Ultra-Turray T25. After subsequent sonification the cell debris was removed by centrifugation at 1000×g and 4° C. Supernatants were then ultra-centrifuged at 100000×g and 4° C. under vacuum for 30 min. Pellets were resuspended in HEPES/EDTA/NaCl-buffer (20 mM HEPES, 1 mM EDTA, 150 mM NaCl; add 1 Complete Mini Protease inhibitor cocktail to 10 ml buffer) and protein content was determined via BCA-Protein assay.
(2) Measurement of Binding Activity of Test Compounds to Human GIPR or GLP-1R

Data set [2] in a line: Solubility assessment (UHPLC-UV of supernatant, target 10 mg/ml). Type of data set: physicochemical. The following applies: for solubility at 24 h: pH 7.4, Soluble amount. How it is done:
Prior to the solubility measurement of a peptide batch, its purity was determined through UHPLC/MS.
Therefore, solutions from solid samples were prepared in a buffer system with a concentration of 10 mg/ml compound based on the previously determined % purity: • Solubility buffer system A) 100 mM phosphate buffer pH 7.4 • Solubility buffer system B) 8 mM phosphate buffer pH 7.4, 14 mg/ml propylene glycol, 5.5 mg/ml phenol • Solubility buffer system C) 100 mM phosphate buffer pH 7.4, 2.7 mg/ml m-cresol
UHPLC-UV was performed after 1 h of gentle agitation and storage at 5° C. overnight (24 h) from the supernatant, which was obtained after 15 min of centrifugation at 2500 RCF (relative centrifugal acceleration).
The different UV extinction coefficients of sample and reference peptide were calculated based on the different amino acid sequences and considered in the concentration calculation.
The analytical method used was Analytical UHPLC Method A.
Peptide samples were prepared in solubility buffer system A or C and solubility was assessed as described in Methods.

Data set [3] addresses human GLP-1 receptor (hGLP-1R) (Homo sapiens, UniProt P43220). Description: In vitro cellular cAMP assay for GLP-1 receptor efficacy (HEK-293 cell line over-expressing receptor). It counts as cell-based. The following applies: HEK-293, 0.1% BSA. Background: cAMP levels reflect the balance of adenylyl cyclase and phosphodiesterase activity.
Data set [4] has as its target T2, human GIP receptor (Homo sapiens, UniProt P48546).
T2 construct: human adipocytes endogenously expressing the human GIP receptor; host or cells: human preadipocytes (Lonza) differentiated to adipocytes
T2 sequence (P48546 22-466): T1 sequence (P48546 22-466)
Description: In vitro cellular cAMP assay for GIP receptor efficacy (human adipocytes). Particulars: for EC50: read-out: hGIPR EC50; for Emax: read-out: hGIPR Emax. It counts as cell-based. On the procedure:
For this, one vial of human preadipocytes (˜10^6 cells; Lonza) was thawed in a T-75 cell culture dish. The cells were cultivated at 37° C., 5% CO2, 95% humidity in Preadipocyte Growth Medium with Supplement Mix from Promo Cell.
After 3 days, the cells were washed with PBS and 1.5 ml Trypsin, incubated for 4 min, then resuspended in medium, centrifugated for 10 min @ 300 rcf RT, resuspended again and distributed to four T-75 cell culture dishes. Again, the cells were cultivated at 37° C., 5% CO2, 95% humidity.
After 5 days, the cells were washed with PBS and 1.5 ml Trypsin, incubated for 4 min, then resuspended in medium, centrifugated for 10 min @ 300 rcf RT, resuspended again and sawn in T-75 dishes (2.5×10^6 cells per dish) in 15 ml Differentiation medium each.
The differentiation medium had the following composition: DMEM (Gibco), Ham's F10 (Gibco), 15 mM HEPES (Gibco), 3% FCS (PAA), 33 μM biotin (Sigma-Aldrich), 17 μM Pantothenate (Sigma-Aldrich), 0.1 μM human insulin (Sigma-Aldrich), 1 μM dexamethason (Sigma-Aldrich), 0.1 μM PPARgamma agonist (#R2408, Sigma-Aldrich), 0.6×Anti-Anti (#15240, ThermoFisher), 200 μM IBMX (AppliChem), and 0.01 μM L-thyroxine (Sigma-Aldrich).
After 6 days of differentiation, 5000 cells per well were dispensed on a 96-well plate (#CLS3694 from Corning®, Sigma-Aldrich). For measurement of cAMP generation, 25 μL of test compound was added to each well of the 96-well plate, followed by incubation for 30 min at room temperature.
The cAMP generated following test compound stimulation was determined using a kit from Cisbio Corp. based on HTRF (Homogenous Time Resolved Fluorescence). The cAMP assay was performed according to manufacturer's instructions (Cisbio).
The cAMP content of cells was determined using a kit from Cisbio Corp. based on HTRF (Homogenous Time Resolved Fluorescence).
After addition of HTRF reagents diluted in lysis buffer (kit components), the plates were incubated for 1 h, followed by measurement of the fluorescence ratio at 665/620 nm.

SMILES strings stand for the structures. Values after ≈ are worked out from the molar mass of the structure shown. Numbered stars: 1 amine (or outer) side, 2 acyl side, 3 side chain; on linkers, the order of the positions; unused ones are H or OH. Square brackets hold non-standard residues; d marks the D form. Side chains are listed from the residue outwards. Peptide text beside a SMILES is read from it. * marks the point of attachment. C18 diacid = O=C(O)CCCCCCCCCCCCCCCCC(=O)*; γGlu = O=C(O)[C@H](CCC(=O)[*:2])N[*:1]; Abu = CC[C@H](N)C(=O)O; AEEA = NCCOCCOCC(=O)O; Aib = CC(C)(N)C(=O)O

human GLP-1 receptor (hGLP-1R), sequence (P43220 24-463): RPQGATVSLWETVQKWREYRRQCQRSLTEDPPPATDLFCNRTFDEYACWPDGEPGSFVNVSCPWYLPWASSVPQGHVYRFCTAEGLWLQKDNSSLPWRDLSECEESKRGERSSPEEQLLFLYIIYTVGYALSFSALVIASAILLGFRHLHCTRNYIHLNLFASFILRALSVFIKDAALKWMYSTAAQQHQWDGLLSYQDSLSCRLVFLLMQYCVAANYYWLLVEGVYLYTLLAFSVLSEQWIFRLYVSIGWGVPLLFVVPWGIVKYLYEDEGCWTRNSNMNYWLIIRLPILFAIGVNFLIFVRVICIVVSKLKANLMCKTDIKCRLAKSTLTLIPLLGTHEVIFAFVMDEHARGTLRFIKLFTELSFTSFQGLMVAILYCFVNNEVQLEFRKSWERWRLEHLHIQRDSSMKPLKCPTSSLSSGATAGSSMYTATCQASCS

Compound `CC[C@H](C)[C@H](NC(=O)[C@H](Cc1ccccc1)NC(=O)[C@H](CCC(=O)O)NC(=O)C(C)(C)NC(=O)[C@H](CCC(N)=O)NC(=O)[C@H](CCCCNC(=O)COCCOCCNC(=O)COCCOCCNC(=O)CC[C@H](NC(=O)CCCCCCCCCCCCCCCCC(=O)O)C(=O)O)NC(=O)[C@H](CCC(N)=O)NC(=O)[C@H](CCC(=O)O)NC(=O)[C@H](CCC(=O)O)NC(=O)[C@H](CC(C)C)NC(=O)C(C)(C)NC(=O)[C@@H](NC(=O)[C@H](CO)NC(=O)[C@H](CC(C)C)NC(=O)[C@H](CC(=O)O)NC(=O)[C@H](CO)NC(=O)[C@@H](NC(=O)[C@H](Cc1ccccc1)NC(=O)[C@@H](NC(=O)CNC(=O)[C@H](CCC(=O)O)NC(=O)C(C)(C)NC(=O)[C@@H](N)Cc1ccc(O)cc1)[C@@H](C)O)[C@@H](C)CC)[C@@H](C)CC)C(=O)N[C@@H](CCC(=O)O)C(=O)N[C@@H](Cc1c[nH]c2ccccc12)C(=O)N[C@@H](CC(C)C)C(=O)N[C@@H](CC(C)C)C(=O)N[C@@H](C)C(=O)N[C@@H](CCC(N)=O)C(=O)NCC(=O)N1CCC[C@H]1C(=O)N[C@@H](CO)C(=O)N[C@@H](CO)C(=O)NCC(=O)N[C@@H](C)C(=O)N1CCC[C@H]1C(=O)N1CCC[C@H]1C(=O)N1CCC[C@H]1C(=O)N[C@@H](CO)C(N)=O` [SEQ ID NO: 36, H2N-Y-Aib-E-G-T-F-I-S-D-L-S-I-Aib-L-E-E-Q-K[{AEEA}2-gGlu-C18OH]-Q-Aib-E-F-I-E-W-L-L-A-Q-G-P-S-S-G-A-P-P-P-S-NH2] (H-Y[Aib]EGTFISDLSI[Aib]LEEQK([AEEA-AEEA-γGlu-C18 diacid])Q[Aib]EFIEWLLAQGPSSGAPPPS-NH2) showed an IC50 in data set [1] of 0.2 nM. The compound further registered a solubility at 24 h in data set [2] of more than 10700 µg/mL. The same compound came in with an EC50 in data set [3] of more than 10 nM. Also, in data set [4], the EC50 is 0.3 nM and the Emax was 104%.

For `CC[C@H](C)[C@H](NC(=O)[C@H](CCCNC(=N)N)NC(=O)[C@H](CC(=O)O)NC(=O)[C@H](CCCCNC(=O)COCCOCCNC(=O)COCCOCCNC(=O)CC[C@H](NC(=O)CCCCCCCCCCCCCCCCC(=O)O)C(=O)O)NC(=O)C(C)(C)NC(=O)[C@@H](NC(=O)[C@H](CO)NC(=O)[C@H](CC(C)C)NC(=O)[C@H](CC(=O)O)NC(=O)[C@H](CO)NC(=O)[C@@H](NC(=O)[C@H](Cc1ccccc1)NC(=O)[C@@H](NC(=O)CNC(=O)[C@H](CCC(=O)O)NC(=O)C(C)(C)NC(=O)[C@@H](N)Cc1ccc(O)cc1)[C@@H](C)O)[C@@H](C)CC)[C@@H](C)CC)C(=O)N[C@@H](Cc1c[nH]cn1)C(=O)N[C@@H](CCC(N)=O)C(=O)NC(C)(C)C(=O)N[C@@H](CCC(=O)O)C(=O)N[C@@H](Cc1ccccc1)C(=O)N[C@H](C(=O)N[C@@H](CCC(=O)O)C(=O)N[C@@H](Cc1c[nH]c2ccccc12)C(=O)N[C@@H](CC(C)C)C(=O)N[C@@H](CC(C)C)C(=O)N[C@@H](C)C(=O)N[C@@H](CCC(N)=O)C(=O)N[C@@H](CCCNC(=N)N)C(=O)N1CCC[C@H]1C(=O)N[C@@H](CO)C(=O)N[C@@H](CO)C(=O)NCC(=O)N[C@@H](C)C(=O)N1CCC[C@H]1C(=O)N1CCC[C@H]1C(=O)N1CCC[C@H]1C(=O)N[C@@H](CO)C(N)=O)[C@@H](C)CC` [SEQ ID NO: 30, H2N-Y-Aib-E-G-T-F-I-S-D-L-S-I-Aib-K[{AEEA}2-gGlu-C18OH]-D-R-I-H-Q-Aib-E-F-I-E-W-L-L-A-Q-R-P-S-S-G-A-P-P-P-S-NH2] (H-Y[Aib]EGTFISDLSI[Aib]K([AEEA-AEEA-γGlu-C18 diacid])DRIHQ[Aib]EFIEWLLAQRPSSGAPPPS-NH2), in data set [1], the IC50 amounted to 0.1 nM. Moreover, the concentration in solution in data set [2] (solubility at 24 h) came to 8400 µg/mL (≈ 1660 µM). Also, the EC50 was more than 10 nM in data set [3] and 0.5 nM in data set [4]. Also, the Emax in data set [4] came out at 138%.

`CC[C@H](NC(=O)[C@@H](NC(=O)CNC(=O)[C@H](CCC(=O)O)NC(=O)C(C)(C)NC(=O)[C@@H](N)Cc1ccc(O)cc1)[C@@H](C)O)C(=O)N[C@H](C(=O)N[C@@H](CO)C(=O)N[C@@H](CC(=O)O)C(=O)N[C@@H](CC(C)C)C(=O)N[C@@H](CO)C(=O)N[C@H](C(=O)NC(C)(C)C(=O)N[C@@H](CCCCNC(=O)COCCOCCNC(=O)COCCOCCNC(=O)CC[C@H](NC(=O)CCCCCCCCCCCCCCCCC(=O)O)C(=O)O)C(=O)N[C@@H](CC(=O)O)C(=O)N[C@@H](CCCNC(=N)N)C(=O)N[C@H](C(=O)N[C@@H](Cc1c[nH]cn1)C(=O)N[C@@H](CCC(N)=O)C(=O)N[C@@H](CCC(=O)O)C(=O)N[C@@H](CCC(=O)O)C(=O)N[C@@H](Cc1ccccc1)C(=O)N[C@H](C(=O)N[C@@H](CCC(=O)O)C(=O)N[C@@H](Cc1c[nH]c2ccccc12)C(=O)N[C@@H](CC(C)C)C(=O)N[C@@H](CC(C)C)C(=O)N[C@@H](C)C(=O)N[C@@H](CCC(N)=O)C(=O)NCC(=O)N1CCC[C@H]1C(=O)N[C@@H](CO)C(=O)N[C@@H](CO)C(=O)NCC(=O)N[C@@H](C)C(=O)N1CCC[C@H]1C(=O)N1CCC[C@H]1C(=O)N1CCC[C@H]1C(=O)N[C@@H](CO)C(N)=O)[C@@H](C)CC)[C@@H](C)CC)[C@@H](C)CC)[C@@H](C)CC` [SEQ ID NO: 25, H2N-Y-Aib-E-G-T-Abu-I-S-D-L-S-I-Aib-K[{AEEA}2-gGlu-C18OH]-DRIHQEEFIEWLLAQGPSSGAPPPS-NH2] (H-Y[Aib]EGT[Abu]ISDLSI[Aib]K([AEEA-AEEA-γGlu-C18 diacid])DRIHQEEFIEWLLAQGPSSGAPPPS-NH2) showed an IC50 in data set [1] of 0.1 nM. For the same compound, in data set [2] (24 h, pH 7.4), the Soluble amount is more than 9.2 mg/mL. The compound further came in with a solubility at 24 h in data set [2] of more than 8800 µg/mL. In addition, the EC50 in data set [3] is more than 10 nM. Moreover, in data set [4], the EC50 turned out to be 0.2 nM and the Emax worked out at 112%.
